Data as given in patent US20240374581A1, “SALT TYPES OF TRICYCLIC TETRAHYDRO ISOQUINOLINE DERIVATIVE” (JIANGSU HENGRUI PHARMACEUTICALS CO., LTD., priority 2021, published 2024).

Key:
[1] = target: hERG potassium channels (Homo sapiens (Human), UniProt Q12809); assay: Blocking of hERG potassium currents (automated patch clamp, HEK293-hERG); assay type: cell-based
Experimental: The blocking of hERG potassium currents by the compound disclosed herein was tested in a stable cell strain transfected with hERG potassium channels using automated patch clamp.
Stably-expressed HEK293-hERG cell strains were subcultured at a density of 1:4 in an MEM/EBSS medium (10% FBS, 400 μg/mL G418, 1% MEM non-essential amino acid solution (100×), and 1% sodium pyruvate solution) and subjected to an automated patch clamp experiment within 48-72 h after the start of the culture. On the day of the experiment, the cells were digested with 0.25% pancreatin, then centrifuged, collected, and resuspended in an extracellular fluid (140 mM NaCl, 4 mM KCl, 1 mM MgCl2, 2 mM CaCl2, 5 mM D-glucose monohydrate, 10 mM Hepes, pH 7.4, 298 mOsm) to form a cell suspension. The cell suspension was placed on the cell bank of the Patchliner instrument that transferred the cells to the chip (NPC-16) using a negative pressure controller. The negative pressure drew individual cells to the wells of the chip. […] Data were recorded and analyzed using the HEAK Patchmaster, HEAK EPC10 patch clamp amplifier (Nanion), Pathliner software and Pathcontrol HTsoftware, and the current of the compound at each concentration and the current of the blank control were analyzed.

[2] = target: T1, CYP3A4 (Homo sapiens (Human), UniProt P08684); assay: Inhibition of site of metabolism of testosterone in human liver microsome CYP3A4; assay type: in vitro ADME; settings: 30 min
Experimental: (§1) • 1. Phosphate buffer (20×PBS, purchased from Sangon); • 2. NADPH (ACROS, A2646-71-1); • 3. Human liver microsome (Corning Gentest, Cat No. 452161, Lot No. 905002, Donor36); • 4. ABI QTrap 4000 LC-MS System (AB Sciex); • 5. ZORBAX Extend-C18, 3×50 mm, 3.5 m (Agilent, USA); • 6. CYP probe substrate (testosterone, Vocko, CAS No. [58-22-0]/75 μM) and positive control inhibitor (ketoconazole, SIGMA, Cat No. K1003-100MG).
A 100 mM PBS buffer was prepared. A 0.25 mg/mL microsome solution, a 7.5 mM MgCl2 and a 5 mM NADPH solution were prepared using the buffer. A30 mM stock solution was diluted with DMSO to obtain 30 mM, 10 mM, 3 mM, 1 mM, 0.3 mM, 0.03 mM, 0.003 mM and 0 mM serial solutions I, which were further diluted 200-fold with phosphate buffer (PBS) to obtain serial test solutions II (150, 50, 15, 5, 1.5, 0.15, 0.015 and 0 μM). A testosterone working solution was diluted with PBS to 375 μM. 40 μL of a 0.25 mg/mL microsome solution prepared in 7.5 mM MgCl2 and 20 μL of each of the 375 μM testosterone working solution and the compound working solutions (150, 50, 15, 5, 1.5, 0.15, 0.015 and 0 μM) were measured out and well mixed. […]
The IC50 value of the drug for the site of metabolism of testosterone in CYP3A4 was calculated by Graphpad Prism and is shown in Table 6.

[3] = target: T1, CYP3A4; assay: Time-dependent inhibition of site of metabolism of midazolam in human liver microsome CYP3A4; assay type: in vitro ADME
Experimental: as §1, with “9050002, Donor, 36);” for “905002, Donor36);”, “(midazolam, TRC, M343000/3” for “(testosterone, Vocko, CAS No. [58-22-0]/75”, “(verapamil, Adamas Reagent Co., Ltd,” for “(ketoconazole, SIGMA,”, “25904A).” for “K1003-100MG).”
A 100 mM PBS buffer was prepared. A 0.25 mg/mL microsome solution, a 7.5 mM MgCl2 and a 5 mM NADPH solution were prepared using the buffer. A 30 mM stock solution was diluted with DMSO to obtain 30 mM, 10 mM, 3 mM, 1 mM, 0.3 mM, 0.1 mM, 0.03 mM and 0 mM serial solutions I, which were further diluted 200-fold with phosphate buffer (PBS) to obtain serial test solutions II (150, 50, 15, 5, 1.5, 0.5, 0.15 and 0 μM). A midazolam working solution was diluted with PBS to 15 μM.
The serial test solutions prepared above were well mixed by shaking and aliquoted in 20 μL portions into corresponding reaction plates (+NADPH, T0 and -NADPH groups were set). Three parallel tests were set. 40 μL of the liver microsome working solution was added to each 96-well plate. 20 μL of a corresponding substrate solution was added to the TO plate. 20 μL of NADPH was added to the TO plate and +NADPH group. A timer was started, and the plates were incubated in a water bath at 37° C. After 30 min of incubation, the TO plate was taken out, and the reaction was terminated with 250 μL of an internal standard-containing ACN solution. The +NADPH group was supplemented with 20 μL of the corresponding substrate solution, and the −NADPH group was supplemented with 20 μL of the corresponding substrate solution and […]. A timer was started, and the plates were incubated in a water bath at 37° C. After 30 min of incubation, the plates were taken out, and the reactions were terminated with 250 μL of an internal standard-containing ACN solution. […]
The IC50 value of the drug for the site of metabolism of midazolam in CYP3A4 was calculated by Graphpad Prism and is shown in Table 7.

T1 sequence (P08684 whole entry): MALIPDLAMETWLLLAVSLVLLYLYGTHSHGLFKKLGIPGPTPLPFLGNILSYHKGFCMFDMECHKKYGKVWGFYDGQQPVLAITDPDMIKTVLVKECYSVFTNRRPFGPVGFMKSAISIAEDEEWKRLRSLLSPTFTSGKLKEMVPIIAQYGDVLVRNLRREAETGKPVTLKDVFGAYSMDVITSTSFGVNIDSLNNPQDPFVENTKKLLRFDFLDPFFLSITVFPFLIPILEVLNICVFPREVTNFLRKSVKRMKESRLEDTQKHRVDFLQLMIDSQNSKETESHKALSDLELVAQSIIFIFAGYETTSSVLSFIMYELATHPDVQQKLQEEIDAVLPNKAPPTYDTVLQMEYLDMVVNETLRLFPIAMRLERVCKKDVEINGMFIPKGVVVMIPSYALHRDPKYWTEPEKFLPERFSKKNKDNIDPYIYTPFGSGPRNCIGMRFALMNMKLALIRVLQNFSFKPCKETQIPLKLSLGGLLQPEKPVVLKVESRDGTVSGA
hERG potassium channels, sequence (Q12809 whole entry): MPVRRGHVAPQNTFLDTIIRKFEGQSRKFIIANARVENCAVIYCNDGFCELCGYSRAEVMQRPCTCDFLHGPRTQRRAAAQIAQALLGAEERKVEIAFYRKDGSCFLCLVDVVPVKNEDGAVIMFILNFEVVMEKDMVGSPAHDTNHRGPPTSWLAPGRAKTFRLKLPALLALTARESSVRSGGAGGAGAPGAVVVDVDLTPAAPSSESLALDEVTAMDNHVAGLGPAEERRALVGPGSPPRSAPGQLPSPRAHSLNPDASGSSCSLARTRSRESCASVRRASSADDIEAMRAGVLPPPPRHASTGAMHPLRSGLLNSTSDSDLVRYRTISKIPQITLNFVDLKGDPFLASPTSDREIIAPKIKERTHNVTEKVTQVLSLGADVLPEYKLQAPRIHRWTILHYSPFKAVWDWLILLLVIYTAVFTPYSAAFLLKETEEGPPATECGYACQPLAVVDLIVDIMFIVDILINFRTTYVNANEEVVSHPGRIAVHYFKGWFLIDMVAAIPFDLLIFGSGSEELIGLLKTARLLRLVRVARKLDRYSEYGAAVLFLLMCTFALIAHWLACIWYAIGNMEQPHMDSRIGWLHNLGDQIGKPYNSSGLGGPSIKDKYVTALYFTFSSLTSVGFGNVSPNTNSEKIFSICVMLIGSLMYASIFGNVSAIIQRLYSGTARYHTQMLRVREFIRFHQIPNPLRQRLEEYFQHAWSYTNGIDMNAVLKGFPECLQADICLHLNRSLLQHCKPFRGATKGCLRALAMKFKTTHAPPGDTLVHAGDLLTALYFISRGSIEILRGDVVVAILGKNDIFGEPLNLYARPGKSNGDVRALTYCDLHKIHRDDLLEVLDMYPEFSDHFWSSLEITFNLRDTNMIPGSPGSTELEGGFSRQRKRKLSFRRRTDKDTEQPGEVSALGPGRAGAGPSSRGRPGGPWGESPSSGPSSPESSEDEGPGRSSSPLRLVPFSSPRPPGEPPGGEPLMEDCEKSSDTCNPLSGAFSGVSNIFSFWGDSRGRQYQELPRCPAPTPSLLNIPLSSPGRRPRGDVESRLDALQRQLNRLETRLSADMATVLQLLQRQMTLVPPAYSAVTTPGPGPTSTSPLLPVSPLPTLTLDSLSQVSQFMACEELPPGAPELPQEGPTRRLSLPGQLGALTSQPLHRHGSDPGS

## [2H]C1([2H])Oc2cc3c(cc2O1)[C@@H](c1ccc(NC2CN(CCCF)C2)cn1)N(CC(F)(F)CO)[C@H](C)C3 [Compound 1, 2,2-Difluoro-3-((5S,7R)-5-(5-((1-(3-fluoropropyl)azetidin-3-yl)amino)pyridin-2-yl)-7-methyl-7,8-dihydro-[1,3]dioxolo[4,5-g]isoquinolin-6(5H)-yl-2,2-d2)propan-1-ol]
[1]
  IC50: > 30 µM
[2]
  IC50: > 30 µM
[3]; human, microsomes
  IC50 shift at 30 min: 0.7
[3]; pre-incubation with NADPH 30 min
  IC50: 13.1 µM
[3]; pre-incubation without NADPH
  IC50: 19.6 µM
